Results on three compounds are retold here after patent US10787472B2, “Prodrugs of pyridone amides useful as modulators of sodium channels” (VERTEX PHARMACEUTICALS INCORPORATED, priority 2013, dated 2020).

Broadly, the Solubility is the concentration that dissolves in the medium under given conditions. Broadly, the Cmax is the maximum level reached in the sampled fluid or tissue.

Series [1] can be described thus: Monkey oral pharmacokinetic study. The series is classed as in vivo, cynomolgus monkeys. Here is the method:
(§1) Before extraction, plasma samples were diluted using blank plasma at an appropriate dilution factor, as necessary, depending on the dose level. […] After centrifugation, the supernatant extract (10 μL) was injected onto the LC/MS/MS system. The HPLC system included a Phenomenex Synergy Kinetix C8 column, 2.6 micron, 2.0 mm diameter×75 mm long eluted with a gradient mobile phase consisting of 0.1% formic acid in water or in acetonitrile.
(§2) The analytes were detected by MS/MS with Electrospray Ionization (ESI) in the mode of multiple reaction monitoring (MRM). […] The intra-day and inter-day assay accuracy was within 20% of the nominal values. The intra- and inter-day assay variability was ≤20%.
(§3) Key pharmacokinetic parameters such as AUCall, AUCextra, Cmax, tmax, Cl, Vss and t1/2 were determined.
(§4) Descriptive statistical data of pharmacokinetic parameters were calculated, including the mean, standard deviation (SD), using Watson LIMS version 7.4 SP3 or Microsoft Excel 2000.
Male or female cynomolgus monkeys (n=3 per dose group) were administered single nominal PO doses of 10, 40, 100, 300, 500, 750 and 1000 mg/kg of compound 9 by gavage. Compound 9 was formulated in 30% PEG400 and 10% TPGS in water or 5% TPGS, 5% PVP-K30 in 50 mM Citrate, pH 5. Animals were fasted overnight prior to dosing, and were fed two hours post dose. Water was available before and after dosing. […]

A short description of series [2]: Rat IV pharmacokinetic study. The series is classed as in vivo, Sprague Dawley rats. The following applies: male rat, after IV bolus 1 mg/kg compound 9; LLOQ 2.5 ng/mL. Here is the method: as §1, §2, §3, §4
Male Sprague Dawley rats (n=3) were administered a single nominal IV bolus dose of 1 mg/kg of compound 9 via a jugular vein cannula. […] Animals had free access to food and water before and after dosing. Blood samples (approximately 0.25 mL each) were collected via a carotid artery catheter prior to dosing and at 5 min, 10 min, 0.25, 0.5, 1, 2, 4, 8, 12, 24 hours post dose. […]

Series [3] can be described thus: Rat oral pharmacokinetic study. The series is classed as in vivo, Sprague Dawley rats. The following applies: for Cmax: male rat, analyte 9a in plasma, 5% TPGS/5% PVP-K30/50 mM Citrate pH5, mean ± SD, N=3. Here is the method: as §1, §2, §3, §4
Groups of male and female Sprague Dawley rats (n=3 per dose group) were administered single nominal oral doses of 10, 100, 400, 640, 1000 mg/kg (for males) and 30, 100, 300, 640, 1000 mg/kg (for females) of compound 9 by gavage. Compound 9 was formulated in either 30% PEG400 and 10% TPGS in water or 5% TPGS, 5% PVP-K30 in 50 mM Citrate, pH 5. Animals had free access to food and water before and after dosing. Blood samples (approximately 0.25 mL each) were collected via a carotid artery catheter prior to dosing and at 0.25, 0.5, 1, 2, 4, 8, 12, 24, 48 and 72 hours post dose. Each blood sample was collected into a tube that was kept on wet ice and contained potassium EDTA as the anticoagulant. Plasma was separated and stored at approximately −70° C. until analysis.

A short description of a further series: Aqueous solubility study. The series is classed as physicochemical. To be noted: ambient conditions, 24 hours. Here is the method:
The aqueous solubility of compound 9 and 9a were determined according to the following procedure. Solubility data was determined at ambient conditions by equilibrating the compound with water on a shaking bed for 24 hours, followed by centrifugation and separation of the saturated solutions. The pH value of each media was measured before centrifugation, and the saturated solutions were assayed by HPLC.

Series [4] can be described thus: Chemical and physical stability of crystalline Form B (XRPD, HPLC impurity profile, appearance). The series is classed as physicochemical. An excerpt:
Chemically and physically stable means no changes were observed on the X-ray powder diffraction and HPLC impurity profiles (e.g., less than 0.2% variance) and there were no observed changes in physical appearance of the samples.

For `Cc1cc(F)ccc1Oc1cc(C(F)(F)F)ccc1C(=O)Nc1ccn(COP(=O)(O)O)c(=O)c1` [Compound 9, (4-(2-(4-fluoro-2-methylphenoxy)-4-(trifluoromethyl)benzamido)-2-oxopyridin-1(2H)-yl)methyl dihydrogen phosphate], the “plasma concentrations of compound 9” value in series [1] (monkey, after PO compound 9 10-1000 mg/kg, LLOQ 10.0 to 25.0 ng/mL) is given as “below LLOQ for the majority of the samples”; in series [2] it was “below LLOQ for the majority of the samples”; in series [3] (rat, after PO compound 9 10-1000 mg/kg, LLOQ 2.5 to 25 ng/mL) it was “below LLOQ for the majority of the samples”. The “in vivo conversion of prodrug to parent compound” value in series [1] (monkeys) and in series [3] (rats) was “converted in vivo into compound 9a” throughout.

For `Cc1cc(F)ccc1Oc1cc(C(F)(F)F)ccc1C(=O)Nc1cc[nH]c(=O)c1` [Compound 9a, 2-(4-fluoro-2-methylphenoxy)-N-(2-oxo-1,2-dihydropyridin-4-yl)-4-(trifluoromethyl)benzamide], the Solubility in the series “Aqueous solubility study” (pH 1.2, crystalline) is below 1 µg/mL; in the series “Aqueous solubility study” (water, pH 6.0, crystalline), below 1 µg/mL. The Cmax in series [3] (Sprague-Dawley, compound 9 PO 100 mg/kg) stood at 1670 ± 1.9 ng/mL; in series [3] (compound 9 PO 1000 mg/kg), 4540 ± 910 ng/mL.

Turning to `Cc1cc(F)ccc1Oc1cc(C(F)(F)F)ccc1C(=O)Nc1ccn(COP(=O)(O)O)c(=O)c1` [crystalline Form B, (4-(2-(4-fluoro-2-methylphenoxy)-4-(trifluoromethyl)benzamido)-2-oxopyridin-1(2H)-yl)methyl dihydrogen phosphate], the “chemical and physical stability” value was “chemically and physically stable for at least one month” in series [4] (5° C./dry, 40° C./dry, 25° C. with RH up to 60%, 40° C. with RH up to 75%); “chemically and physically stable for at least three months” in series [4] (open dish 40° C., 40° C./RH up to 75%, 25° C./RH up to 60%, closed dish 5° C. with desiccator).
